In one experiment the target is human full length PDE3B (Homo sapiens (Human), UniProt Q13370). Put plainly: Assay 5 PDE3B enzyme inhibition (3H-cAMP SPA). Type of experiment: biochemical. As to conditions: Sf9 cell extract. How it is done: (§1) The commercially available 3H-cAMP Scintillation Proximity Assay (SPA, Perkin Elmer) system was used for enzyme inhibition studies. For the determination of the in vitro effect of example compounds on the PDE3B reactions 2 μl of the respective example compound solution in DMSO (serial dilutions) were placed in wells of microtiter plates (Isoplate-96/200W; Perkin Elmer). 50 μl of a dilution of PDE3B cell extract from Sf9 cells overexpressing human full length PDE3B (SB Drug Discovery, UK) in buffer A (50 mM Tris/HCl pH 7.5, 8.3 mM MgCl2, 1.7 mM EDTA, 0.2% BSA) was added. The dilution of the PDE3B cell extract was chosen such that the reaction kinetics was linear and less than 70% of the substrate was consumed (typical dilution 1:6000). The reaction was started by addition of 50 μl (0.025 μCi) of 1:2000 in buffer A w/o BSA diluted substrate [8-3H]adenosine 3′, 5′-cyclic phosphate (1 μCi/μl; Perkin Elmer). After incubation at room temperature for 60 min, the reaction was stopped by addition of 25 μl of a suspension containing 18 mg/ml yttrium scintillation proximity beads (Perkin Elmer) in water. The microtiter plates were sealed and measured in a Microbeta scintillation counter (PerkinElmer Wallac). IC50 values were determined from sigmoidal curves by plotting percentage PDE3B activity vs log compound concentration.
Chain of human full length PDE3B (Q13370 whole entry): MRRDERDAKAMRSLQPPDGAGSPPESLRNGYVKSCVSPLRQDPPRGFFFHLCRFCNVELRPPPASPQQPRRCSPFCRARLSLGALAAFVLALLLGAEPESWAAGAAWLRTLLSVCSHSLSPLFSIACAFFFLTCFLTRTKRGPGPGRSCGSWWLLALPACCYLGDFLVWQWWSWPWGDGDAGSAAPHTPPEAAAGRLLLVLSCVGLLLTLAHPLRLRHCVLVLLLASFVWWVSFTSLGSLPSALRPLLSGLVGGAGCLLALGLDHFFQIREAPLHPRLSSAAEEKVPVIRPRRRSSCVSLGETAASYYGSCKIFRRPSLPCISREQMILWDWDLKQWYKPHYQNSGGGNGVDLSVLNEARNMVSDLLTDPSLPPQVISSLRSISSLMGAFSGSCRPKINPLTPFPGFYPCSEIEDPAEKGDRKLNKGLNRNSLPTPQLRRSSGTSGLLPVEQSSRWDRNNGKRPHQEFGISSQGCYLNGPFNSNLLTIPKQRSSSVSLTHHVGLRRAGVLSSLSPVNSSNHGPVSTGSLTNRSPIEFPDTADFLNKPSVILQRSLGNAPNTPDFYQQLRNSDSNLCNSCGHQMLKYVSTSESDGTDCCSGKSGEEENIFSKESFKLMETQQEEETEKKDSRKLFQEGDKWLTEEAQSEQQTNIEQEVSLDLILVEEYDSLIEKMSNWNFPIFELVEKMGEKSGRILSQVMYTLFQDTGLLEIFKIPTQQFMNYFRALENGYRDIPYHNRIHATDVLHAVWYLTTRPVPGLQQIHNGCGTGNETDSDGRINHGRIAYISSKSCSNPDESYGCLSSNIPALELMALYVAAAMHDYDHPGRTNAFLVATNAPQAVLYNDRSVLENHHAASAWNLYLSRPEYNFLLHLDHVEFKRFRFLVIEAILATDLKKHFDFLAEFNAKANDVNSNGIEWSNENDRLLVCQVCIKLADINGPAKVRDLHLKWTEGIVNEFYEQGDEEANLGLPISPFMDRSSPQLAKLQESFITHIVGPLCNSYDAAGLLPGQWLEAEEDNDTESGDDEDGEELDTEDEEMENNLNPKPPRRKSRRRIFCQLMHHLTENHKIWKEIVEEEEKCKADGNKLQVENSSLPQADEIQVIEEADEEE

The next experiment has as its target human full length PDE3A (Homo sapiens (Human), UniProt Q14432). Put plainly: Assay 4 PDE3A enzyme inhibition (3H-cAMP SPA). Type of experiment: biochemical. As to conditions: Sf9 cell extract. The protocol:
Assay 4 Method for PDE3A Enzyme Inhibition
as §1, with “PDE3A” for “PDE3B”, “1:5000).” for “1:6000).”

For a further experiment, the system named is HeLa cells. Put plainly: Assay 1 cell proliferation measurement (CTG, 72 h), HeLa. It is filed as cell-based, human. As to conditions: Homo sapiens, HeLa; Assay 1, 72 h, Cell Titer Glo; read-out: HeLa IC50 [nM] (Cervical cancer). How it is done:
Cell Proliferation Measurement
The antiproliferative activity of the compounds of the general formula (I) was examined in vitro in human cancer cells. For this purpose, the appropriate number of cells (Hela: 800; SK-MEL-3: 1000; A549: 800) were plated in 384-well plates with appropriate growth medium ((A549: DMEM/Ham's F12 (Biochrom; #FG 4815 with stabile Glutamine), FCS 10% final (Biochrom; #S 0415); Hela: DMEM/Ham's F12 (Biochrom; #FG 4815 with stabile Glutamine), FCS 10% final (Biochrom; #S 0415); SK-MEL-3: McCoy's 5A (Biochrom; #F 1015), FCS 10% final (Biochrom; #S 0415), L-Alanyl-L-Glutamine final: 2 mM, (Biochrom; #K 0302)) and incubated at 37° C. overnight. After 24 h, cells on one plate (0 h plate) were treated with 30 μl/cavity of CTG solution (Promega Cell Titer Glo (catalogue #G755B and G756B)) and incubated at room temperature for 10 min, and luminescence was measured by means of a VICTOR V (Perkin Elmer), in order to determine cell viability on commencement of treatment. The cells on the test plate were treated with the compounds of the general formula (I) as and incubated at 37° C. for 72 h. The compounds were added to the cells by means of an HP D300 digital dispenser in a 10-step 2.5-fold dilution series generally starting at a maximum final drug concentration of 100 nM. As control, the cells were treated with vehicle (DMSO at 0.3% final concentration). After 72 h, the cells were treated with 30 μl/cavity of CTG solution (Promega Cell Titer Glo (catalogue #G755B and G756B)) and incubated at room temperature for 10 min. and luminescence was measured by means of a VICTOR V (Perkin Elmer), in order to determine cell viability at the end of treatment. The percentage effect on cell growth and the IC50 derived therefrom were determined for each test substance using the values from the 0 h plate […] and the DMSO control […]. The IC50 values were calculated using a 4-parameter fit.
(ATP-based viability assays read luminescence as a measure of living cells.)

pIC50: −log10 of the molar value.

Chain of human full length PDE3A (Q14432 whole entry): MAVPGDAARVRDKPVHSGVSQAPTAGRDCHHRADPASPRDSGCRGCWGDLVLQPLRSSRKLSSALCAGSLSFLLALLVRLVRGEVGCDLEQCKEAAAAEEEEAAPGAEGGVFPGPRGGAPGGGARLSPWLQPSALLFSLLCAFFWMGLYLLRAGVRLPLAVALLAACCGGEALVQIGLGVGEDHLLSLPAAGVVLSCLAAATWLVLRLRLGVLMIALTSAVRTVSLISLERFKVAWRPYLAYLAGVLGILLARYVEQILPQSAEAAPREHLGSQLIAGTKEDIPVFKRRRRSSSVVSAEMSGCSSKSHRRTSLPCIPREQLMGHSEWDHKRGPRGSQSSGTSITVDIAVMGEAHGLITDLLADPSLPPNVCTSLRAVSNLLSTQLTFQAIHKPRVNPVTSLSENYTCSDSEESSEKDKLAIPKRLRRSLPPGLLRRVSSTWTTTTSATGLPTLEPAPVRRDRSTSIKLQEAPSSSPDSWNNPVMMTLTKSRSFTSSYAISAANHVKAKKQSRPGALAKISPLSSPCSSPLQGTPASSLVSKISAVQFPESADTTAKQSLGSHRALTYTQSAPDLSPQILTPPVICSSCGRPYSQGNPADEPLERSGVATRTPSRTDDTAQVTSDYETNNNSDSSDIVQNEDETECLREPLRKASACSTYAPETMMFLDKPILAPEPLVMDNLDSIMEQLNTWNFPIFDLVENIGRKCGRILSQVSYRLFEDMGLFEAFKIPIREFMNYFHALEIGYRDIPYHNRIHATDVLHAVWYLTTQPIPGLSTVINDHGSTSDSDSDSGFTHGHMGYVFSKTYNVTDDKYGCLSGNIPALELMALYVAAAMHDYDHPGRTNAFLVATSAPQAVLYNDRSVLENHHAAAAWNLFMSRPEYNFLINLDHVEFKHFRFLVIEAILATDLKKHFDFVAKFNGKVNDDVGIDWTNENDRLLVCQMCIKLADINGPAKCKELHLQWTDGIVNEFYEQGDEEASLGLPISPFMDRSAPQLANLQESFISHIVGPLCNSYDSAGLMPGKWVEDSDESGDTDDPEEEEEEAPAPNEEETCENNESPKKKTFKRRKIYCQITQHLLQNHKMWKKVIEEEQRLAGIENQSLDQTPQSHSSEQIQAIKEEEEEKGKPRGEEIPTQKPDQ

By pIC50 is commonly meant −log10 of the IC50, conventionally taken in molar units. The low end stands for a large IC50, the high end for a small IC50. For orientation: IC50 means the point on the concentration scale where inhibition reaches its midpoint. For `O=C1NN=C(c2ccc(NCC3(CO)CCC3)c(C(F)(F)F)c2)CO1` [Example 249, 5-[4-({[1-(Hydroxymethyl)cyclobutyl]methyl}amino)-3-(trifluoromethyl)phenyl]-3,6-dihydro-2H-1,3,4-oxadiazin-2-one], the pIC50 against human full length PDE3B was 6.96; at human full length PDE3A it was 7.00. Moreover, in the experiment with HeLa cells, the IC50 came out at 1 nM.

On to `O=C1NN=C(c2ccc(N3CC4CC4C3)c(C(F)(F)F)c2)CO1` (stereo not drawn) [Example 252, 5-[4-(3-Azabicyclo[3.1.0]hexan-3-yl)-3-(trifluoromethyl)phenyl]-3,6-dihydro-2H-1,3,4-oxadiazin-2-one], for which the pIC50 against human full length PDE3B is 7.07; at human full length PDE3A, 6.96. In addition, the IC50 in the experiment with HeLa cells was determined as 1 nM.

Turning to `O=C1NN=C(c2ccc(NCc3ncccn3)c(C(F)(F)F)c2)CO1` [Example 244, 5-[4-{[(Pyrimidin-2-yl)methyl]amino}-3-(trifluoromethyl)phenyl]-3,6-dihydro-2H-1,3,4-oxadiazin-2-one], the pIC50 against human full length PDE3B was 6.82; at human full length PDE3A it was 6.92. Further, in the experiment with HeLa cells, the IC50 came out at 3 nM.

Turning to `CCOC1CN(c2ccc(C3=NNC(=O)OC3)cc2C(F)(F)F)C1` [Example 243, 5-[4-(3-Ethoxyazetidin-1-yl)-3-(trifluoromethyl)phenyl]-3,6-dihydro-2H-1,3,4-oxadiazin-2-one], the results for the negative logarithm of the IC50 (pIC50) against human full length PDE3B and at human full length PDE3A were 7.00 and 7.32, respectively. In addition, the IC50 in the experiment with HeLa cells is 6 nM.

As for `O=C1NN=C(c2ccc(N3CC4(C3)CS(=O)(=O)C4)c(C(F)(F)F)c2)CO1` [Example 255, 6-[4-(2-Oxo-3,6-dihydro-2H-1,3,4-oxadiazin-5-yl)-2-(trifluoromethyl)phenyl]-2λ^6-thia-6-azaspiro[3.3]heptane-2,2-dione], the pIC50 was 7.12 on human full length PDE3B and 7.00 at human full length PDE3A. In addition, the IC50 with HeLa cells came to 5 nM.

For the molecule `CC1(C)CC1CNc1ccc(C2=NNC(=O)OC2)cc1C(F)(F)F` (racemic) [Example 248, (rac)-5-[4-{[(2,2-Dimethylcyclopropyl)methyl]amino}-3-(trifluoromethyl)phenyl]-3,6-dihydro-2H-1,3,4-oxadiazin-2-one], the values for the pIC50 at human full length PDE3B and at human full length PDE3A were 6.85 and 7.21, respectively. Moreover, the IC50 with HeLa cells is 6 nM.

Regarding `COCC(O)CNc1ccc(C2=NNC(=O)OC2)cc1C(F)(F)F` (racemic) [Example 235, (rac)-5-{4-[(2-Hydroxy-3-methoxypropyl)amino]-3-(trifluoromethyl)phenyl}-3,6-dihydro-2H-1,3,4-oxadiazin-2-one], the pIC50 at human full length PDE3B is 6.74; at human full length PDE3A it was 6.77. In the experiment with HeLa cells, the IC50 came to 4 nM.

Regarding `O=C1NN=C(c2ccc(N3CCCC(O)C3)c(C(F)(F)F)c2)CO1` (racemic) [Example 229, (rac)-5-[4-(3-hydroxypiperidin-1-yl)-3-(trifluoromethyl)phenyl]-3,6-dihydro-2H-1,3,4-oxadiazin-2-one], the figures for the negative logarithm of the IC50 (pIC50) against human full length PDE3B and on human full length PDE3A were 7.17 and 7.09, respectively. Besides, the IC50 with HeLa cells came to 1 nM.

With `O=C1NN=C(c2ccc(N[C@@H]3C[C@@H]4CC[C@@H]3C4)c(C(F)(F)F)c2)CO1` [Example 233, 5-[4-{[(1R,2R,4R)-Bicyclo[2.2.1]heptan-2-yl]amino}-3-(trifluoromethyl)phenyl]-3,6-dihydro-2H-1,3,4-oxadiazin-2-one], the figures for the negative-log IC50 (pIC50) at human full length PDE3B and at human full length PDE3A were 6.60 and 7.07, respectively. The IC50 in the experiment on HeLa cells stood at 8 nM.

Regarding `NC(=O)C1CCCN(c2ccc(C3=NNC(=O)OC3)cc2C(F)(F)F)C1` (racemic) [Example 230, (rac)-1-[4-(2-Oxo-3,6-dihydro-2H-1,3,4-oxadiazin-5-yl)-2-(trifluoromethyl)phenyl]piperidine-3-carboxamide], the negative-log IC50 (pIC50) against human full length PDE3B is 7.00; on human full length PDE3A, 7.24. Moreover, the IC50 in the experiment with HeLa cells was determined as 7 nM.

Turning to `Cn1nccc1CNc1ccc(C2=NNC(=O)OC2)cc1C(F)(F)F` [Example 236, 5-[4-{[(1-Methyl-1H-pyrazol-5-yl)methyl]amino}-3-(trifluoromethyl)phenyl]-3,6-dihydro-2H-1,3,4-oxadiazin-2-one], the pIC50 at human full length PDE3B was 7.27; at human full length PDE3A it was 7.35. The IC50 in the experiment on HeLa cells is 4 nM.

In the case of `CC(C)(CO)CNc1ccc(C2=NNC(=O)OC2)cc1C(F)(F)F` [Example 231, 5-{4-[(3-Hydroxy-2,2-dimethylpropyl)amino]-3-(trifluoromethyl)phenyl}-3,6-dihydro-2H-1,3,4-oxadiazin-2-one], the pIC50 is 6.96 on human full length PDE3B and 7.00 at human full length PDE3A. For the same molecule, the half-maximal inhibitory concentration (IC50) in the experiment with HeLa cells is 2 nM.

Turning to `C[C@@H](CCO)Nc1ccc(C2=NNC(=O)OC2)cc1C(F)(F)F` [Example 246, 5-[4-{[(2S)-4-Hydroxybutan-2-yl]amino}-3-(trifluoromethyl)phenyl]-3,6-dihydro-2H-1,3,4-oxadiazin-2-one], the pIC50 on human full length PDE3B is 6.68; on human full length PDE3A, 7.02. For the same molecule, in the experiment with HeLa cells, the IC50 is 12 nM.

Turning to `N#CCCCNc1ccc(C2=NNC(=O)OC2)cc1C(F)(F)F` [Example 254, 4-[4-(2-Oxo-3,6-dihydro-2H-1,3,4-oxadiazin-5-yl)-2-(trifluoromethyl)anilino]butanenitrile], the pIC50 on human full length PDE3B is 7.51; on human full length PDE3A, 7.35. Moreover, the IC50 in the experiment with HeLa cells was 2 nM.

As for `O=C1NN=C(c2ccc(NCCn3cccn3)c(C(F)(F)F)c2)CO1` [Example 238, 5-[4-{[2-(1H-Pyrazol-1-yl)ethyl]amino}-3-(trifluoromethyl)phenyl]-3,6-dihydro-2H-1,3,4-oxadiazin-2-one], the pIC50 on human full length PDE3B is 6.52; at human full length PDE3A, 7.06. The IC50 in the experiment on HeLa cells was determined as 7 nM.

`O=C1NN=C(c2ccc(N3CCC(O)CC3)c(C(F)(F)F)c2)CO1` [Example 227, 5-[4-(4-Hydroxypiperidin-1-yl)-3-(trifluoromethyl)phenyl]-3,6-dihydro-2H-1,3,4-oxadiazin-2-one]: the figures for the pIC50 against human full length PDE3B and on human full length PDE3A were 8.05 and 7.89, respectively. In the experiment on HeLa cells, the IC50 is 1 nM.

Take `COC(C)CNc1ccc(C2=NNC(=O)OC2)cc1C(F)(F)F` (racemic) [Example 242, (rac)-5-{4-[(2-Methoxypropyl)amino]-3-(trifluoromethyl)phenyl}-3,6-dihydro-2H-1,3,4-oxadiazin-2-one]: the pIC50 is 6.89 against human full length PDE3B and 7.04 on human full length PDE3A. Also, the IC50 in the experiment with HeLa cells worked out at 2 nM.

In the case of `CCOC(C)CNc1ccc(C2=NNC(=O)OC2)cc1C(F)(F)F` (racemic) [Example 241, (rac)-5-{4-[(2-Ethoxypropyl)amino]-3-(trifluoromethyl)phenyl}-3,6-dihydro-2H-1,3,4-oxadiazin-2-one], the pIC50 on human full length PDE3B was 6.89; on human full length PDE3A, 7.18. In addition, in the experiment on HeLa cells, the IC50 turned out to be 6 nM.

The values are drawn from patent US11427553B2, “Dihydrooxadiazinones” (Bayer Aktiengesellschaft, priority 2017, dated 2022).
